Results reported in patent US12180193B2, “Accelerating fibrosarcoma protein degrading compounds and associated methods of use” (Arvinas Operations, Inc., priority 2020, dated 2024).

Legend:
[1] = target: T1, BRAF V600E (Homo sapiens, UniProt P15056, V600E); assay: Cellular assay of target protein degradation, T-Rex 293 cells stably transfected with HA-BRAF_V600E (HA immunofluorescence, high content imaging); assay type: cell-based; details: T-Rex 293 HA-BRAF V600E; for DC50: half maximal degradation, read-out: BRaf V600E DC50; for Dmax: maximum degradation observed
T1 construct: expressed in transfected cells
How it was run: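 Doxycycline-induced (1 ng/mL) cells were treated 24 h at 37 °C with compound at 1 μM to 0.1 nM final in 0.1% DMSO. After fixation, permeabilization and blocking, anti-HA staining was imaged by high-content reading; DC50 and Dmax (% of control) were derived.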

[2] = target: T2, BRAF G466V (Homo sapiens, UniProt P15056, G466V); assay: Cellular assay of target protein degradation, T-Rex 293 cells stably transfected with HA-BRAF G466V (HA immunofluorescence, high content imaging); assay type: cell-based; details: T-Rex 293 HA-BRAF G466V; for DC50: half maximal degradation, read-out: BRaf G466V DC50; for Dmax: maximum degradation observed
T2 construct: expressed in transfected cells
How it was run: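 Cells expressing doxycycline-induced (0.75 ng/mL) HA-BRAF G466V were treated with compound at 30 nM to 3 pM in 0.1% DMSO for 24 hours at 37° C. After fixation and permeabilization, HA was immunostained and quantified by high content imaging to derive DC50 and Dmax.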

T2 sequence (P15056 whole entry G466V): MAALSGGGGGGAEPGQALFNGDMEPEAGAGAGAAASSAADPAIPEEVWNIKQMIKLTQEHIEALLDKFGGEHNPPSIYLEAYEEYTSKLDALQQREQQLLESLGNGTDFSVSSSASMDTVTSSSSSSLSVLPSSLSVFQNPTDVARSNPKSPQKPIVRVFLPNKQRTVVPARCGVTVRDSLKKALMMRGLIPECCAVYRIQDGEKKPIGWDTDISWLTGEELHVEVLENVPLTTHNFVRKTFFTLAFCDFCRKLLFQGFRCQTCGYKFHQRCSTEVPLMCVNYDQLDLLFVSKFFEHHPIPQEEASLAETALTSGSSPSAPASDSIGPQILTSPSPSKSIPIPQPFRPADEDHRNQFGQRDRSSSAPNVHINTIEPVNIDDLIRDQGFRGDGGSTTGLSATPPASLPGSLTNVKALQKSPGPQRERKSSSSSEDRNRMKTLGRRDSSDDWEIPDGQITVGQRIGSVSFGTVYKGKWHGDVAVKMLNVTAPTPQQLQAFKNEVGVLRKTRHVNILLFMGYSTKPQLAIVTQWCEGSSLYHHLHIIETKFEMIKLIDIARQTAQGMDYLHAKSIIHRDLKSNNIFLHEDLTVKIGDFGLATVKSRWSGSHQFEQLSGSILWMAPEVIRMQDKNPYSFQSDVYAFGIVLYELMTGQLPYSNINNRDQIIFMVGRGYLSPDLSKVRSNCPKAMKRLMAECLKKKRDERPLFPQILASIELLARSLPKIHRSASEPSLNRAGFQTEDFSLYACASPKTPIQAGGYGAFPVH
T1 sequence (P15056 whole entry V600E): as the sequence (P15056 whole entry G466V) above, with V466G, V600E counted along it

| DC50 [1] [nM] | Dmax [1] [%] | DC50 [2] [nM] | Dmax [2] [%] | SMILES |
| --- | --- | --- | --- | --- |
| 5 to 50 | 35 to 70 | 1 to 10 | > 70 | CN(CCN1CCN(c2ccc3c(c2)CN(C2CCC(=O)NC2=O)C3=O)CC1)[C@H]1CC[C@H](Oc2ccc(-c3cnc4[nH]cc(C(=O)c5c(F)ccc(NS(=O)(=O)N6CC[C@@H](F)C6)c5F)c4c3)cc2)CC1 (stereo partly drawn) [Compound 145, (3R)-N-{2,4-difluoro-3-[5-(4-{[(1r,4r)-4-[(2-{4-[2-(2,6-dioxopiperidin-3-yl)-1-oxo-2,3-dihydro-1H-isoindol-5-yl]piperazin-1-yl}ethyl)(methyl)amino]cyclohexyl]oxy}phenyl)-1H-pyrrolo[2,3-b]pyridine-3-carbonyl]phenyl}-3-fluoropyrrolidine-1-sulfonamide] |
| 5 to 50 | 35 to 70 | 1 to 10 | > 70 | O=C1CCC(N2Cc3cc(N4CCC(CN5CCN(Cc6ccc(-c7cnc8[nH]cc(C(=O)c9c(F)ccc(NS(=O)(=O)N%10CC[C@@H](F)C%10)c9F)c8c7)cc6)CC5)CC4)ccc3C2=O)C(=O)N1 (stereo partly drawn) [Compound 146, (3R)-N-{3-[5-(4-{[4-({1-[2-(2,6-dioxopiperidin-3-yl)-1-oxo-2,3-dihydro-1H-isoindol-5-yl]piperidin-4-yl}methyl)piperazin-1-yl]methyl}phenyl)-1H-pyrrolo[2,3-b]pyridine-3-carbonyl]-2,4-difluorophenyl}-3-fluoropyrrolidine-1-sulfonamide] |
| 50 to 500 | 35 to 70 | 1 to 10 | 35 to 70 | O=C1CCC(N2Cc3cc(CCCN4CC5(C4)CN(c4ncc(-c6cnc7[nH]cc(C(=O)c8c(F)ccc(NS(=O)(=O)N9CC[C@@H](F)C9)c8F)c7c6)cn4)C5)ccc3C2=O)C(=O)N1 (stereo partly drawn) [Compound 147, (3R)-N-(3-{5-[2-(6-{3-[2-(2,6-dioxopiperidin-3-yl)-1-oxo-2,3-dihydro-1H-isoindol-5-yl]propyl}-2,6-diazaspiro[3.3]heptan-2-yl)pyrimidin-5-yl]-1H-pyrrolo[2,3-b]pyridine-3-carbonyl}-2,4-difluorophenyl)-3-fluoropyrrolidine-1-sulfonamide] |
| 5 to 50 | 35 to 70 | 1 to 10 | > 70 | O=C1CCC(N2Cc3cc(CCOCCN4CCN(c5ccc(-c6cnc7[nH]cc(C(=O)c8c(F)ccc(NS(=O)(=O)N9CC[C@@H](F)C9)c8F)c7c6)cc5)CC4)ccc3C2=O)C(=O)N1 (stereo partly drawn) [Compound 148, (3R)-N-[3-(5-{4-[4-(2-{2-[2-(2,6-dioxopiperidin-3-yl)-1-oxo-2,3-dihydro-1H-isoindol-5-yl]ethoxy}ethyl)piperazin-1-yl]phenyl}-1H-pyrrolo[2,3-b]pyridine-3-carbonyl)-2,4-difluorophenyl]-3-fluoropyrrolidine-1-sulfonamide] |
| 50 to 500 | 35 to 70 | 1 to 10 | > 70 | O=C1CCC(N2Cc3cc(C4CCN(CCc5ccc(-c6cnc7[nH]cc(C(=O)c8c(F)ccc(NS(=O)(=O)N9CC[C@@H](F)C9)c8F)c7c6)cc5)[C@H](CO)C4)ccc3C2=O)C(=O)N1 (stereo partly drawn) [Compound 149, (3R)-N-{3-[5-(4-{2-[(2S)-4-[2-(2,6-dioxopiperidin-3-yl)-1-oxo-2,3-dihydro-1H-isoindol-5-yl]-2-(hydroxymethyl)piperidin-1-yl]ethyl}phenyl)-1H-pyrrolo[2,3-b]pyridine-3-carbonyl]-2,4-difluorophenyl}-3-fluoropyrrolidine-1-sulfonamide] |
| 50 to 500 | 35 to 70 | 1 to 10 | > 70 | O=C1CCC(N2Cc3cc(C4CCN(CCc5ccc(-c6cnc7[nH]cc(C(=O)c8c(F)ccc(NS(=O)(=O)N9CC[C@@H](F)C9)c8F)c7c6)cc5)[C@@H](CO)C4)ccc3C2=O)C(=O)N1 (stereo partly drawn) [Compound 150, (3R)-N-{3-[5-(4-{2-[(2R)-4-[2-(2,6-dioxopiperidin-3-yl)-1-oxo-2,3-dihydro-1H-isoindol-5-yl]-2-(hydroxymethyl)piperidin-1-yl]ethyl}phenyl)-1H-pyrrolo[2,3-b]pyridine-3-carbonyl]-2,4-difluorophenyl}-3-fluoropyrrolidine-1-sulfonamide] |
| 50 to 500 | 35 to 70 | 1 to 10 | > 70 | O=C1CCC(N2Cc3cc(CCOCCN4CCC(c5ccc(-c6cnc7[nH]cc(C(=O)c8c(F)ccc(NS(=O)(=O)N9CC[C@@H](F)C9)c8F)c7c6)cc5)CC4)ccc3C2=O)C(=O)N1 (stereo partly drawn) [Compound 151, (3R)-N-[3-(5-{4-[1-(2-{2-[2-(2,6-dioxopiperidin-3-yl)-1-oxo-2,3-dihydro-1H-isoindol-5-yl]ethoxy}ethyl)piperidin-4-yl]phenyl}-1H-pyrrolo[2,3-b]pyridine-3-carbonyl)-2,4-difluorophenyl]-3-fluoropyrrolidine-1-sulfonamide] |
| 5 to 50 | 35 to 70 | 1 to 10 | > 70 | O=C1CCC(N2Cc3cc(N4CCN(CCc5ccc(-c6cnc7[nH]cc(C(=O)c8c(F)ccc(NS(=O)(=O)N9CC[C@@H](F)C9)c8F)c7c6)cc5)CC4)c(F)cc3C2=O)C(=O)N1 (stereo partly drawn) [Compound 152, (3R)-N-(3-{5-[4-(2-{4-[2-(2,6-dioxopiperidin-3-yl)-6-fluoro-1-oxo-2,3-dihydro-1H-isoindol-5-yl]piperazin-1-yl}ethyl)phenyl]-1H-pyrrolo[2,3-b]pyridine-3-carbonyl}-2,4-difluorophenyl)-3-fluoropyrrolidine-1-sulfonamide] |
| 50 to 500 | > 70 | 1 to 10 | > 70 | O=C1CCC(N2Cc3cc(N4CCC(CN5CCN(Cc6ncc(-c7cnc8[nH]cc(C(=O)c9c(F)ccc(NS(=O)(=O)N%10CC[C@@H](F)C%10)c9F)c8c7)cn6)CC5)CC4)ccc3C2=O)C(=O)N1 (stereo partly drawn) [Compound 153, (3R)-N-{3-[5-(2-{[4-({1-[2-(2,6-dioxopiperidin-3-yl)-1-oxo-2,3-dihydro-1H-isoindol-5-yl]piperidin-4-yl}methyl)piperazin-1-yl]methyl}pyrimidin-5-yl)-1H-pyrrolo[2,3-b]pyridine-3-carbonyl]-2,4-difluorophenyl}-3-fluoropyrrolidine-1-sulfonamide] |
| 5 to 50 | 35 to 70 | < 1 | > 70 | O=C1CCC(N2Cc3cc(N4CCC(CN5CCC(Cc6ccc(-c7cnc8[nH]cc(C(=O)c9c(F)ccc(NS(=O)(=O)N%10CC[C@@H](F)C%10)c9F)c8c7)cc6)CC5)CC4)ccc3C2=O)C(=O)N1 (stereo partly drawn) [Compound 154, (3R)-N-{3-[5-(4-{[1-({1-[2-(2,6-dioxopiperidin-3-yl)-1-oxo-2,3-dihydro-1H-isoindol-5-yl]piperidin-4-yl}methyl)piperidin-4-yl]methyl}phenyl)-1H-pyrrolo[2,3-b]pyridine-3-carbonyl]-2,4-difluorophenyl}-3-fluoropyrrolidine-1-sulfonamide] |
| 5 to 50 | 35 to 70 | 1 to 10 | > 70 | CN(CC1CCN(c2ccc(-c3cnc4[nH]cc(C(=O)c5c(F)ccc(NS(=O)(=O)N6CC[C@@H](F)C6)c5F)c4c3)cc2)CC1)[C@H]1C[C@@H](Oc2ccc3c(c2)CN(C2CCC(=O)NC2=O)C3=O)C1 (stereo partly drawn) [Compound 155, (3R)-N-[2,4-difluoro-3-(5-{4-[4-({methyl[(1s,3s)-3-{[2-(2,6-dioxopiperidin-3-yl)-1-oxo-2,3-dihydro-1H-isoindol-5-yl]oxy}cyclobutyl]amino}methyl)piperidin-1-yl]phenyl}-1H-pyrrolo[2,3-b]pyridine-3-carbonyl)phenyl]-3-fluoropyrrolidine-1-sulfonamide] |
